One may read the IC50 as the concentration that inhibits the measured activity by half.

The values that follow come from patent publication US20250145589A1, “PYRIDINE DERIVATIVE AND USE THEREOF” (SICHUAN HUIYU PHARMACEUTICAL CO., LTD., priority 2021, published 2025).

Test [1] has as its target PI3Kα (Homo sapiens (Human), UniProt P42336). As to the kind of experiment: Inhibition of PI3Kα efficacy assay (ADP-Glo kinase assay). In kind it is biochemical. The settings on record: read-out: PI3Kα inhibitory activity (IC50). The method in brief: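 Eight five-fold dilutions of compound (2 mM DMSO stock) tested; kinase reaction with PI and ATP ran 60 min at RT, followed by ADP-Glo and detection reagent steps of 40 min each. Four-parameter logistic fitting gave IC50 values.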
On the technique in general: In ADP-Glo the light output rises with the ADP produced.

The target of test [2] is PI3Kδ (Homo sapiens (Human), UniProt O00329). As to the kind of experiment: Inhibition of PI3Kδ efficacy assay (ADP-Glo kinase assay). In kind it is biochemical. As to conditions: read-out: PI3Kδ inhibitory activity (IC50). The method in brief:
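Luminescent ADP-Glo readout of PI3Kδ: after a 60 min RT reaction with PI/ATP substrate, ATP depletion (40 min) and ADP detection (40 min) steps followed. Compounds tested as eight five-fold serial dilutions; inhibition rates fitted to log(inhibitor) vs. response, variable slope, for IC50.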

Test [3] deals with NCI-H358 cells (KRAS G12C mutant). As to the kind of experiment: NCI-H358 cell proliferation inhibition (CellTiter-Glo). In kind it is cell-based. As to conditions: Homo sapiens, NCI-H358, 72 h; H358 cells (G12C mutation), 3 days, Table 6; read-out: NCI-H358 (IC50).
The subject of test [4] is MIA PaCa-2 cells (KRAS G12C mutant). As to the kind of experiment: MIA PaCa-2 cell anti-proliferation (CellTiter-Glo). In kind it is cell-based. The settings on record: Homo sapiens. Here is the method:
The number of viable cells was determined using the CellTiter-Glo® assay to evaluate the anti-proliferation efficacy of compounds. […] The compounds were serially diluted 4-fold in DMSO to obtain 9 concentrations, and then further diluted with DMEM (10% FBS+2.5% horse serum+1% penicillin/streptomycin) cell culture medium to obtain the working solutions (2×), 15 μL of each working solution was added to the cell culture supernatant in each well, and the cells were further incubated for 3 days at 37° C. with 5% CO2. The plate was then equilibrated with CellTiter-Glo® reagent at room temperature (25° C.) for 30 minutes. After adding 25 μL of CellTiter-Glo®, reagent, the cells were thoroughly mixed with the CellTiter-Glo® reagent using a microplate shaker for 2 minutes, and then incubated at room temperature for at least 30 minutes. […] Data were analyzed using GraphPad Prism for IC50 values (Note: The negative control refers to the group without inhibitor).
In general terms: Cellular ATP, detected with luciferase, serves as a proxy for viable cell number.

Where [5] appears, read: 72 h, MIA Paca-2 cells, 3 days, Table 7, read-out: MIA PaCa-2 (IC50).

Each structure is given as a SMILES string. Where two headings read alike, the source gives them in different places.

PI3Kα, sequence (P42336 whole entry): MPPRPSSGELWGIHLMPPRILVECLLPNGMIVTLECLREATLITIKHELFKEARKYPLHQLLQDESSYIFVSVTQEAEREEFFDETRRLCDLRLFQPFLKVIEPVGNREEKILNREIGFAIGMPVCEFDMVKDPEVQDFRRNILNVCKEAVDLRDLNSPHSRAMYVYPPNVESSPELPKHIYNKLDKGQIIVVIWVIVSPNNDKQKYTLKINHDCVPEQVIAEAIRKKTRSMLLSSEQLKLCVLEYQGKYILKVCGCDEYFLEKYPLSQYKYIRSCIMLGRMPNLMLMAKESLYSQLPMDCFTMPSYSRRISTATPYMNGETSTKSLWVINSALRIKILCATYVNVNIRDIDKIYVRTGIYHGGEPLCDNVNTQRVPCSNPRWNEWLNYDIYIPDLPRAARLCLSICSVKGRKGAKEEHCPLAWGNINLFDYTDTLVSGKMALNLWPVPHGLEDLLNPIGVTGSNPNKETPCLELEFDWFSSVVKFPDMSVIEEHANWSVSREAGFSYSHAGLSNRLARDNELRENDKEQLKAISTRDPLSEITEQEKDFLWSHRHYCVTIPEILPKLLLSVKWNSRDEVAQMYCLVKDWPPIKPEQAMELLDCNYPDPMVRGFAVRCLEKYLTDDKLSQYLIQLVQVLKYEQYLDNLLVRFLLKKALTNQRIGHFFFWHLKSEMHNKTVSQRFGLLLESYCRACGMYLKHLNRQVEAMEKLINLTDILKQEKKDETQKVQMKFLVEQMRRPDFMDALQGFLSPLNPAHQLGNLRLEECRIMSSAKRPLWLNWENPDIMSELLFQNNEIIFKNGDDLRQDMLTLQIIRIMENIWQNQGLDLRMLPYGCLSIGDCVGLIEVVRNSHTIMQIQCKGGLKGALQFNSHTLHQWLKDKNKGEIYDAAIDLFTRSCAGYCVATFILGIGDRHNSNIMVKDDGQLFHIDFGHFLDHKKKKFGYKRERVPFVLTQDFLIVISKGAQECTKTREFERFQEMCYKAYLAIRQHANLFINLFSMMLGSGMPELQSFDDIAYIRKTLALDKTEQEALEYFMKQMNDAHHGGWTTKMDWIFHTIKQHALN
PI3Kα, sequence (P27986 whole entry partner): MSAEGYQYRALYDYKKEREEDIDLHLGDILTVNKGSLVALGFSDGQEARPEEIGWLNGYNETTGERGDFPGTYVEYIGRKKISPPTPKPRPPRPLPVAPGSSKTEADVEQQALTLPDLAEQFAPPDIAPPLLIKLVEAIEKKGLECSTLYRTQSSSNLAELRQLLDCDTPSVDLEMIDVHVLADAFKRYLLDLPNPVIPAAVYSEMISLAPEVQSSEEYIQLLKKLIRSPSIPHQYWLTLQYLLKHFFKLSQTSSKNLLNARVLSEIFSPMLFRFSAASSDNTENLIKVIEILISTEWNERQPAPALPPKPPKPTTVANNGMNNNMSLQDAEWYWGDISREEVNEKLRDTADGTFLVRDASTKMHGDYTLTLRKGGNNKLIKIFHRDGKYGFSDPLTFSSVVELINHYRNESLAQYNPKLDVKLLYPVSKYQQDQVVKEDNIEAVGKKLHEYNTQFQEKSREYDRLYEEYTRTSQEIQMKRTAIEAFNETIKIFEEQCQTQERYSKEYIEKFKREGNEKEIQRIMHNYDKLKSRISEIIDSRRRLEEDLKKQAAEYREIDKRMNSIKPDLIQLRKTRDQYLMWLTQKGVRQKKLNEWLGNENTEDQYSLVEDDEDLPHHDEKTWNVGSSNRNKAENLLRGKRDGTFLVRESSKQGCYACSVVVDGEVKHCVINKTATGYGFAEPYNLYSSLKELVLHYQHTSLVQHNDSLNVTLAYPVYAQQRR
PI3Kδ, sequence (O00329 whole entry): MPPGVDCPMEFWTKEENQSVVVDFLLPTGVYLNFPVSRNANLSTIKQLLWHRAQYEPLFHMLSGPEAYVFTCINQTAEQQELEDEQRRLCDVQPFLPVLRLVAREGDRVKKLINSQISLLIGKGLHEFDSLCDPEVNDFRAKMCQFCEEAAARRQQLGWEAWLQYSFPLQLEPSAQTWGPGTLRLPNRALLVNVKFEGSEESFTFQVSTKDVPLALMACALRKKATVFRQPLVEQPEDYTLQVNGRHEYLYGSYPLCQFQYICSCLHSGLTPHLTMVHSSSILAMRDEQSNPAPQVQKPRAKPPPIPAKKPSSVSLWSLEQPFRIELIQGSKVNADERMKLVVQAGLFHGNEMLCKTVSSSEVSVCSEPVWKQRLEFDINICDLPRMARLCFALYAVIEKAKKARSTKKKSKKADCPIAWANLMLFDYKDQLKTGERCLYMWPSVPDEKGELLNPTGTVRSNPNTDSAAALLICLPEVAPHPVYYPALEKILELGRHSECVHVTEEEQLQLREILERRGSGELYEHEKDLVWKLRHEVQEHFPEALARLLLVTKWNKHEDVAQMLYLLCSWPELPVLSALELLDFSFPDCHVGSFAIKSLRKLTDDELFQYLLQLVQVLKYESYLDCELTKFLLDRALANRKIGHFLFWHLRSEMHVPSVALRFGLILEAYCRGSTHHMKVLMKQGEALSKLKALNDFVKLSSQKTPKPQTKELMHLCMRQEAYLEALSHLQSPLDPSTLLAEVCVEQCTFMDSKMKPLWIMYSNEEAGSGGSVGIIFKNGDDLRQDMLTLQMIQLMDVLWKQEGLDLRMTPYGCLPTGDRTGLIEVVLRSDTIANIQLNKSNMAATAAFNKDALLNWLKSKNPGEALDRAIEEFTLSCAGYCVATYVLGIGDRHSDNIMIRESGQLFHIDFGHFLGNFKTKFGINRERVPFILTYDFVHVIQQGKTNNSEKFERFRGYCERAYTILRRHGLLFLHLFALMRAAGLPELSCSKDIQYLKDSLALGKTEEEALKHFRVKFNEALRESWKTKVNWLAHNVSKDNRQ
PI3Kδ, sequence (P27986 whole entry partner): as the sequence (P27986 whole entry partner) above

With `C=CC(=O)N1CCC(Nc2ncnc3ccc(-c4cnc(Cl)c(NS(=O)(=O)c5ccc(F)cc5F)c4)nc23)CC1` [Example 2, N-(5-(4-((1-acryloylpiperidin-4-yl)amino)pyrido[3,2-d]pyrimidin-6-yl)-2-chloropyridin-3-yl)-2,4-difluorobenzenesulfonamide], the IC50 is 7.3 nM in test [1] (Table 1), 41.8 nM in test [2] (Table 1), 485 nM in test [3] and 485 nM in test [4] (setting [5]).

In the case of `C=CC(=O)N1CCN(c2ncnc3ccc(-c4cnc(OC)c(NS(C)(=O)=O)c4)cc23)CC1` [Example 4, N-(5-(4-(4-acryloylpiperazin-1-yl)quinazolin-6-yl)-2-methoxypyridin-3-yl)methanesulfonamide], the IC50 in test [1] (Table 1) turned out to be 9.5 nM; in test [2] (Table 1), 12 nM; in test [3] it was 494 nM; in test [4] (setting [5]), 494 nM.

`COc1ncc(-c2ccc3ncnc(N4CCN(C(=O)/C=C/C(C)=O)CC4)c3c2)cc1NS(=O)(=O)c1cccc2cccc(Cl)c12` [Example 96, (E)-8-chloro-N-(2-methoxy-5-(4-(4-(4-oxopent-2-enoyl)piperazin-1-yl)quinazolin-6-yl)pyridin-3-yl)naphthalene-1-sulfonamide]: the IC50 in test [1] (Table 2) is 1 nM; in test [2] (Table 2) it was 171 nM; in test [3] it was 35.8 nM; in test [4] (setting [5]) it was 90 nM.

As for `COc1ncc(-c2ccc3ncnc(N4CCN(C(=O)/C=C/C(C)=O)CC4)c3c2)cc1S(=O)(=O)Nc1ccc(F)cc1F` [Example 166, (E)-N-(2,4-difluorophenyl)-2-methoxy-5-(4-(4-(4-oxopent-2-enoyl)piperazin-1-yl)quinazolin-6-yl)pyridine-3-sulfonamide], the IC50 in test [1] (Table 4) is 16.1 nM; in test [2] (Table 4), 22.3 nM; in test [3], 344 nM; in test [4] (setting [5]) it was 369 nM.

Take `COc1ncc(-c2ccc3ncnc(N4CCN(C(=O)/C=C/C(C)=O)CC4)c3n2)cc1NS(=O)(=O)c1ccc(C(F)(F)F)cc1F` [Example 221, (E)-2-fluoro-N-(2-methoxy-5-(4-(4-(4-oxopent-2-enoyl)piperazin-1-yl)pyrido[3,2-d]pyrimidin-6-yl)pyridin-3-yl)-4-(trifluoro-methyl)benzene-sulfonamide]: the IC50 in test [1] (Table 4) was 2.2 nM; in test [3], 42.9 nM; in test [4] (setting [5]), 60 nM.

As to `COc1ncc(-c2ccc3ncnc(N4CCN(C(=O)/C=C/C(C)=O)CC4)c3n2)cc1NS(=O)(=O)c1sc(C)nc1C` [Example 222, (E)-N-(2-methoxy-5-(4-(4-(4-oxopent-2-enoyl)piperazin-1-yl)pyrido[3,2-d]pyrimidin-6-yl)pyridin-3-yl)-2,4-dimethyl-thiazole-5-sulfonamide], the IC50 in test [1] (Table 4) amounted to 0.49 nM; in test [2] (Table 4), 11.7 nM; in test [3], 35.1 nM; in test [4] (setting [5]), 29.1 nM.

`CCOc1ncc(-c2ccc3ncnc(N4CCN(C(=O)/C=C/C(C)=O)CC4)c3n2)cc1NS(=O)(=O)c1ccccc1F` [Example 227, (E)-N-(2-ethoxy-5-(4-(4-(4-oxopent-2-enoyl)piperazin-1-yl)pyrido[3,2-d]pyrimidin-6-yl)pyridin-3-yl)-2-fluorobenzene-sulfonamide]: the IC50 amounted to 2.4 nM in test [1] (Table 4), 83.5 nM in test [3] and 76.2 nM in test [4] (setting [5]).

`COc1ncc(-c2ccc3ncnc(C4=CCN(C(=O)/C=C/C(C)=O)CC4)c3n2)cc1NS(=O)(=O)c1sc(C)nc1C` [Example 237, (E)-N-(2-methoxy-5-(4-(1-(4-oxopent-2-enoyl)-1,2,3,6-tetrahydropyridin-4-yl)pyrido[3,2-d]pyrimidin-6-yl)pyridin-3-yl)-2,4-dimethylthiazole-5-sulfonamide]: the IC50 in test [1] (Table 4) was 5.2 nM; in test [3] it was 58.6 nM; in test [4] (setting [5]), 71.6 nM.

For the compound `COc1ncc(-c2ccc3ncnc(C4=CCN(C(=O)/C=C/C(C)=O)CC4)c3n2)cc1NS(=O)(=O)c1ccccc1F` [Example 238, (E)-2-fluoro-N-(2-methoxy-5-(4-(1-(4-oxopent-2-enoyl)-1,2,3,6-tetrahydropyridin-4-yl)pyrido[3,2-d]pyrimidin-6-yl)pyridin-3-yl)benzenesulfonamide], the IC50 in test [1] (Table 4) was found to be 3.1 nM; in test [3], 65.8 nM; in test [4] (setting [5]) it was 79.5 nM.

Regarding `COc1ncc(-c2ccc3ncnc(C4=CCN(C(=O)/C=C/C(C)=O)CC4)c3n2)cc1NS(=O)(=O)c1c(F)cccc1F` [Example 239, (E)-2,6-difluoro-N-(2-methoxy-5-(4-(1-(4-oxopent-2-enoyl)-1,2,3,6-tetrahydropyridin-4-yl)pyrido[3,2-d]pyrimidin-6-yl)pyridin-3-yl)benzenesulfonamide], the IC50 in test [1] (Table 4) worked out at 6.4 nM; in test [3] it was 55 nM; in test [4] (setting [5]), 70.2 nM.

Take `COc1ncc(-c2ccc3ncnc(C4=CCN(C(=O)/C=C/C(C)=O)CC4)c3n2)cc1NS(=O)(=O)c1ccc(F)cc1F` [Example 240, (E)-2,4-difluoro-N-(2-methoxy-5-(4-(1-(4-oxopent-2-enoyl)-1,2,3,6-tetrahydropyridin-4-yl)pyrido[3,2-d]pyrimidin-6-yl)pyridin-3-yl)benzenesulfonamide]: the IC50 in test [1] (Table 4) amounted to 5 nM; in test [3], 48.7 nM; in test [4] (setting [5]) it was 55.2 nM.

`COc1ncc(-c2cc(C(F)(F)F)c3ncnc(N4CCN(C(=O)/C=C/C(C)=O)CC4)c3c2)cc1NS(=O)(=O)c1ccc(F)cc1F` [Example 243, (E)-2,4-difluoro-N-(2-methoxy-5-(4-(4-(4-oxopent-2-enoyl)piperazin-1-yl)-8-(trifluoromethyl)quinazolin-6-yl)pyridin-3-yl)benzenesulfonamide]: the IC50 in test [1] (Table 4) was 838 nM; in test [3], 720 nM; in test [4] (MIA PaCa-2, 72 h, read-out: MIA PaCa-2 (IC50, nM)), 393 nM.

Regarding `COc1ncc(-c2cc3c(N4CCN(C(=O)/C=C/C(C)=O)CC4)ncnc3cn2)cc1NS(=O)(=O)c1ccc(F)cc1F` [Example 245, (E)-2,4-difluoro-N-(2-methoxy-5-(4-(4-(4-oxopent-2-enoyl)piperazin-1-yl)pyrido[3,4-d]pyrimidin-6-yl)pyridin-3-yl)benzenesulfonamide], the IC50 in test [1] (Table 4) turned out to be 14.9 nM; in test [3], 497 nM; in test [4] (setting [5]), 827 nM.

As for `COc1ncc(-c2ccc3ncnc(N4CCN(C(=O)/C=C\C(=O)C(F)(F)F)CC4)c3c2)cc1NS(=O)(=O)c1ccc(F)cc1F` [Example 248, (Z)-2,4-difluoro-N-(2-methoxy-5-(4-(4-(5,5,5-trifluoro-4-oxopent-2-enoyl)piperazin-1-yl)quinazolin-6-yl)pyridin-3-yl)benzenesulfonamide], the IC50 in test [1] (Table 4) came out at 2.3 nM; in test [3] it was 115 nM; in test [4] (setting [5]), 44.1 nM.
